# Assay results from ChEMBL document CHEMBL1150710, “Cytotoxic steroids of Gelsemium sempervirens” (1987).
# Active and inactive are the calls of the source. The calls are words filed in the database; no cut-off is given here.
# Assays:
# [1] = test system: P388; test: Cytotoxicity against mouse P388 cells; type: functional; conditions: for EC50: read-out: ED50 (the source's name)
# [2] = test system: KB; test: Cytotoxicity against human KB cells; type: functional; conditions: for EC50: read-out: ED50 (the source's name)
Compound,ED50 [1],ED50 [2],EC50 [1] [µg/mL],EC50 [2] [µg/mL]
C[C@H]1[C@H](C)CC[C@]2(C(=O)O)CC[C@]3(C)C(=CC[C@@H]4[C@@]5(C)CC[C@H](O)C(C)(C)[C@@H]5CC[C@]43C)[C@H]12,inactive,inactive,–,–
C=C[C@]12CN(C)[C@@H]3[C@H]4CO[C@H](C[C@H]41)[C@]1(C(=O)N(OC)c4ccccc41)[C@@H]32,inactive,inactive,–,–
CC(=O)C1=CC[C@H]2[C@@H]3CC[C@H]4CC(=O)CC[C@]4(C)[C@H]3C[C@@H](O)[C@]12C,–,–,0.9,0.7
C=C[C@]12C(=O)N(C)[C@@H]3[C@H]4CO[C@H](C[C@H]41)[C@]1(C(=O)Nc4ccccc41)[C@@H]32,inactive,inactive,–,–
CCC1=N[C@H]2C[C@@]3(C(=O)N(OC)c4ccccc43)[C@H]3C[C@@H]1[C@@H]2CO3,inactive,inactive,–,–
C/C=C1\CN2[C@H]3C[C@H]1[C@H](CO)[C@@H]2Cc1c3[nH]c2ccccc12,inactive,inactive,–,–
CCC1=N[C@H]2C[C@@]3(C(=O)N(OC)c4ccccc43)[C@@H]3OC[C@H]2[C@H]1[C@@H]3O,inactive,inactive,–,–
C/C=C1\CN(C)[C@H]2C[C@@]3(C(=O)N(OC)c4ccccc43)[C@H]3C[C@@H]1[C@@H]2CO3,inactive,inactive,–,–
C=C[C@]12CN(C)[C@@H]3[C@H]4CO[C@H](C[C@H]41)[C@]1(C(=O)Nc4ccccc41)[C@@H]32,inactive,inactive,–,–
CC[C@H]1N[C@H]2C[C@@]3(C(=O)N(OC)c4ccccc43)[C@H]3C[C@@H]1[C@@H]2CO3,inactive,inactive,–,–
CC(=O)C1=CC[C@H]2[C@@H]3CCC4=CC(=O)CC[C@]4(C)[C@H]3C[C@@H](O)[C@]12C,–,–,2.8,2
CC[C@H]1N[C@H]2C[C@@]3(C(=O)N(OC)c4ccccc43)[C@@H]3OC[C@H]2[C@H]1[C@@H]3O,inactive,inactive,–,–
COc1cc2ccc(=O)oc2cc1O,inactive,inactive,–,–
